Values joined by “and” are separate entries in the source; they are usually repeats but may differ in a detail not shown here. Equal values may be shown once.
What was measured:
[1] = tested on: Gossyp. hirs.; assay: preemergence treatment in the greenhouse, % damage; format: in vivo, Gosspyium hirsutum
Text: (§1) The vessels employed were plastic flowerpots having a volume of 300 cm^3; the substrate was a sandy loam containing about 1.5% humus. The seeds of the test plants (see Table 1) were sown shallow, and separated according to species. In the case of Cyperus esculentus, pregerminated tubers were planted. In the preemergence treatment, the active ingredients were then immediately applied to the surface of the soil. They were suspended or emulsified in water as the vehicle, and sprayed through atomizing nozzles. After the agents had been applied, the vessels were lightly sprinkler-irrigated to set germination and growth going, and to activate the chemical agents. The vessels were then covered with transparent plastic hoods until the plants had taken root. This cover ensured uniform germination of the test plants (to the extent that this was not impaired by the chemicals), and prevented readily volatile substances from evaporating.
(§2) For postemergence treatment, the plants were first grown to a height of from 3 to 10 cm, depending on their habit, before treated. Hoods were not placed on the pots. The experiments were set up in the greenhouse, hotter areas (25° to 40° C.) being preferred for heat-loving species, and 15° to 30° C. for plants from moderate climates. The experiments were carried out for from 4 to 6 weeks. During this period the plants were tended and their reaction to the various treatments was assessed. The following tables contain the substances investigated, the application rates in kg/ha of active ingredient, and the test plant species. Assessments were made on a 0 to 100 scale, 0 denoting no damage or normal emergence, and 100 denoting no emergence or complete destruction of at least the visible plant parts.

[2] = tested on: Glyc. max; assay: preemergence treatment in the greenhouse, % damage; format: in vivo, Glycine max; settings: 0.25 kg/ha
Summary of the method: (§3)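 Ratings, on a 0 to 100 scale, show injury where 100 means no emergence or complete destruction of visible parts. Compounds in water were sprayed either onto freshly sown soil, which was then watered and hooded, or onto plants 3–10 cm tall. Observation lasted 4–6 weeks.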

[3] = tested on: Stell. med.; assay: postemergence application in the greenhouse, % damage; format: in vivo
Text: as §1, §2

[4] = tested on: Avena fat.; assay: as above; format: in vivo
Text: as §1, §2

[5] = tested on: Setaria spp.; assay: as above; format: in vivo
Text: as §1, §2

[6] = tested on: Alopec. myosur.; assay: as above; format: in vivo
Text: as §1, §2

[7] = tested on: Matric. spp.; assay: as above; format: in vivo
Text: as §1, §2

[8] = tested on: Chrys. seget.; assay: as above; format: in vivo
Text: as §1, §2

[9] = tested on: Glyc. max; assay: preemergence application in the open, % damage; format: in vivo, Glycine max
Method: (§4) The experiments were carried out on small plots. The soil was a sandy loam having a pH of from 5 to 6 and containing from 1 to 1.5% humus. The treatment was preemergence, the active ingredients being applied immediately or at the latest 3 days after sowing. The crop plants were sown in rows. The weed flora was made up of the most widely varying species and was natural; the weed flora depended on the time of the year and in part on the crop (e.g., spring-germinating, summer-germinating). The substances were emulsified or suspended in water as the vehicle, and applied by means of a motor-driven plot spray mounted on a hitch. When no rain fell, the plots were watered to ensure germination and growth of the crop plants and weeds. All the experiments were run for several weeks. Over this period, assessments were made at certain intervals on the 0 to 100 scale.

[10] = tested on: Cyper. escul.; assay: postemergence application in the greenhouse, % damage; format: in vivo, Cyperus esculentus
Text: as §1, §2

[11] = tested on: Amar. retro.; assay: preemergence treatment in the greenhouse, % damage; format: in vivo
Summary of the method: as §3

[12] = tested on: Euph. gen.; assay: preemergence treatment in the greenhouse, % damage; format: in vivo
Summary of the method: as §3

[13] = tested on: Sorgh. halep.; assay: preemergence treatment in the greenhouse, % damage; format: in vivo
Summary of the method: as §3

[14] = tested on: Stell. med.; assay: preemergence treatment in the greenhouse, % damage; format: in vivo
Summary of the method: as §3

[15] = tested on: Poa annua; assay: preemergence treatment in the greenhouse, % damage; format: in vivo
Summary of the method: as §3

[16] = tested on: Bromus spp.; assay: preemergence treatment in the greenhouse, % damage; format: in vivo
Summary of the method: as §3

[17] = tested on: Setaria spp.; assay: preemergence treatment in the greenhouse, % damage; format: in vivo
Summary of the method: as §3

[18] = tested on: Alopec. myosur.; assay: preemergence treatment in the greenhouse, % damage; format: in vivo
Summary of the method: as §3

[19] = tested on: Solanum nigrum; assay: preemergence treatment in the greenhouse, % damage; format: in vivo
Summary of the method: as §3

[20] = tested on: Echin. c.g.; assay: preemergence treatment in the greenhouse, % damage; format: in vivo
Summary of the method: as §3

[21] = tested on: Zea mays; assay: preemergence treatment in the greenhouse, % damage; format: in vivo
Summary of the method: as §3

[22] = tested on: Cyp. diff.; assay: preemergence treatment in the greenhouse, % damage; format: in vivo
Summary of the method: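 Sow shallow in sandy loam, spray actives (water vehicle) on soil at once for preemergence, irrigate, hood until rooting; or grow to 3–10 cm and spray unhooded for postemergence. Keep 4–6 weeks at 15–40 °C by species, then score damage 0–100.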

[23] = tested on: Matric. spp.; assay: preemergence treatment in the greenhouse, % damage; format: in vivo
Summary of the method: as §3

[24] = tested on: Chrys. seget.; assay: preemergence treatment in the greenhouse, % damage; format: in vivo
Summary of the method: as §3

[25] = tested on: Amar. retro.; assay: preemergence application in the open, % damage; format: in vivo; settings: 1,0 kg/ha
Method: as §4

[26] = tested on: Galins. spp.; assay: preemergence application in the open, % damage; format: in vivo
Method: as §4

[27] = tested on: Brassica napus; assay: preemergence application in the open, % damage; format: in vivo; settings: 2.0 kg/ha
Method: as §4

[28] = tested on: Anth./Matric.; assay: preemergence application in the open, % damage; format: in vivo; settings: 2.0 kg/ha
Method: as §4

[29] = tested on: Chenop. spp.; assay: preemergence application in the open, % damage; format: in vivo
Method: as §4

[30] = tested on: Alopec. myosur.; assay: preemergence application in the open, % damage; format: in vivo; settings: 2.0 kg/ha
Method: as §4

[31] = tested on: Echin. c.g.; assay: preemergence application in the open, % damage; format: in vivo
Method: as §4

[32] = tested on: Stellaria media; assay: preemergence application in the open, % damage; format: in vivo; settings: 2.0 kg/ha
Method: as §4

[33] = tested on: Cyper. escul.; assay: preemergence treatment in the greenhouse, % damage; format: in vivo, Cyperus esculentus
Text: as §1, §2

[34] = tested on: Sorgh. bicol.; assay: preemergence treatment in the greenhouse, % damage; format: in vivo, Sorghum bicolor
Text: as §1, §2

[35] = one value printed for two rates (0.25 0.5 kg/ha)

SMILES: CCc1cccc(CC)c1N(COC)C(=O)CCl [prior art, 2-chloro-2',6'-diethyl-N-methoxymethyl-acetanilide, reference compound]
- % damage ([1]; 0.25 kg/ha): 0%
- % damage ([1]; 0.5 kg/ha): 0%
- % damage ([1]; 1.0 kg/ha): 20% and 10%
- % damage ([1]; 2.0 kg/ha): 40%
- % damage [2]: 10%
- % damage ([3]; 1.0 kg/ha): 0%
- % damage ([3]; 2.0 kg/ha): 30%
- % damage ([4]; 1.0 kg/ha): 50%
- % damage ([4]; 2.0 kg/ha): 70%
- % damage ([5]; 1.0 kg/ha): 68%
- % damage ([5]; 2.0 kg/ha): 68%
- % damage ([6]; 1.0 kg/ha): 60%
- % damage ([6]; 2.0 kg/ha): 60%
- % damage ([7]; 1.0 kg/ha): 50%
- % damage ([7]; 2.0 kg/ha): 50%
- % damage ([8]; 1.0 kg/ha): 15%
- % damage ([8]; 2.0 kg/ha): 15%
- % damage ([9]; 0,1 kg/ha): 0%
- % damage ([9]; 1,0 kg/ha): 0%
- % damage ([10]; 1.0 kg/ha): 42%
- % damage ([10]; 2.0 kg/ha): 55%
- % damage ([11]; 0.25 kg/ha): 72% and 80%
- % damage ([11]; 0.5 kg/ha): 100% and 80%
- % damage ([11]; 2.0 kg/ha): 100% and 50%
- % damage [11, 35]: 75%
- % damage ([12]; 0.5 kg/ha): 25% and 20% and 30%
- % damage ([12]; 1.0 kg/ha): 45% and 50%
- % damage ([12]; 2.0 kg/ha): 100%
- % damage ([13]; 0.125 kg/ha): 40%
- % damage ([13]; 0.25 kg/ha): 38% and 50% and 30%
- % damage ([13]; 0.5 kg/ha): 50% and 40%
- % damage ([13]; 1.0 kg/ha): 70%
- % damage ([14]; 0.25 kg/ha): 20%
- % damage ([14]; 0.5 kg/ha): 70%
- % damage ([14]; 1.0 kg/ha): 70%
- % damage ([15]; 0.125 kg/ha): 80%
- % damage ([15]; 0.5 kg/ha): 15%
- % damage ([16]; 0.125 kg/ha): 50%
- % damage ([16]; 0.25 kg/ha): 80% and 88%
- % damage ([16]; 0.5 kg/ha): 90%
- % damage ([16]; 1.0 kg/ha): 50%
- % damage ([16]; 2.0 kg/ha): 70%
- % damage ([17]; 0.25 kg/ha): 70%
- % damage ([17]; 0.5 kg/ha): 60% and 90%
- % damage ([17]; 1.0 kg/ha): 90% and 95% and 100%
- % damage ([17]; 2.0 kg/ha): 100%
- % damage ([18]; 0.25 kg/ha): 40%
- % damage ([18]; 0.5 kg/ha): 80%
- % damage ([18]; 1.0 kg/ha): 80%
- % damage ([19]; 0.25 kg/ha): 50%
- % damage ([19]; 0.5 kg/ha): 80% and 95%
- % damage ([19]; 1.0 kg/ha): 100%
- % damage ([19]; 2.0 kg/ha): 100%
- % damage ([20]; 0.25 kg/ha): 95%
- % damage ([20]; 0.5 kg/ha): 65% and 100%
- % damage ([20]; 2.0 kg/ha): 95% and 90%
- % damage ([21]; 1.0 kg/ha): 0%
- % damage ([21]; 2.0 kg/ha): 0%
- % damage ([22]; 0.125 kg/ha): 65%
- % damage ([22]; 0.25 kg/ha): 70% and 100%
- % damage ([22]; 0.5 kg/ha): 100%
- % damage ([22]; 1.0 kg/ha): 100%
- % damage [22, 35]: 65%
- % damage ([23]; 0.25 kg/ha): 50%
- % damage ([23]; 0.5 kg/ha): 80%
- % damage ([23]; 1.0 kg/ha): 90%
- % damage ([24]; 0.25 kg/ha): 30%
- % damage ([24]; 0.5 kg/ha): 0%
- % damage [25]: 80%
- % damage ([26]; 0,1 kg/ha): 30%
- % damage ([26]; 1,0 kg/ha): 55%
- % damage [27]: 5%
- % damage [28]: 53%
- % damage ([29]; 0,1 kg/ha): 10%
- % damage ([29]; 1,0 kg/ha): 13%
- % damage [30]: 65%
- % damage ([31]; 0,1 kg/ha): 65%
- % damage ([31]; 1,0 kg/ha): 73%
- % damage [32]: 15%
- % damage ([33]; 0.5 kg/ha): 40%
- % damage ([33]; 1.0 kg/ha): 50%
- % damage ([33]; 2.0 kg/ha): 60%
- % damage ([34]; 1.0 kg/ha): 0%
- % damage ([34]; 2.0 kg/ha): 0%

Source: patent US4593104A, “2-halo-N-(azole-1-yl-methyl)-substituted acetanilides” (BASF Aktiengesellschaft, priority 1976, dated 1986)
